From ChEMBL document CHEMBL5726842, “Bicyclic azaheterocyclobenzylamines as PI3K inhibitors” (2019) come the findings set out here.

One may read the IC50 as the concentration that gives 50% inhibition.

This assay concerns the target T1, Phosphatidylinositol 4,5-bisphosphate 3-kinase catalytic subunit delta isoform (Homo sapiens, UniProt O00329).
T1 sequence (O00329 whole entry): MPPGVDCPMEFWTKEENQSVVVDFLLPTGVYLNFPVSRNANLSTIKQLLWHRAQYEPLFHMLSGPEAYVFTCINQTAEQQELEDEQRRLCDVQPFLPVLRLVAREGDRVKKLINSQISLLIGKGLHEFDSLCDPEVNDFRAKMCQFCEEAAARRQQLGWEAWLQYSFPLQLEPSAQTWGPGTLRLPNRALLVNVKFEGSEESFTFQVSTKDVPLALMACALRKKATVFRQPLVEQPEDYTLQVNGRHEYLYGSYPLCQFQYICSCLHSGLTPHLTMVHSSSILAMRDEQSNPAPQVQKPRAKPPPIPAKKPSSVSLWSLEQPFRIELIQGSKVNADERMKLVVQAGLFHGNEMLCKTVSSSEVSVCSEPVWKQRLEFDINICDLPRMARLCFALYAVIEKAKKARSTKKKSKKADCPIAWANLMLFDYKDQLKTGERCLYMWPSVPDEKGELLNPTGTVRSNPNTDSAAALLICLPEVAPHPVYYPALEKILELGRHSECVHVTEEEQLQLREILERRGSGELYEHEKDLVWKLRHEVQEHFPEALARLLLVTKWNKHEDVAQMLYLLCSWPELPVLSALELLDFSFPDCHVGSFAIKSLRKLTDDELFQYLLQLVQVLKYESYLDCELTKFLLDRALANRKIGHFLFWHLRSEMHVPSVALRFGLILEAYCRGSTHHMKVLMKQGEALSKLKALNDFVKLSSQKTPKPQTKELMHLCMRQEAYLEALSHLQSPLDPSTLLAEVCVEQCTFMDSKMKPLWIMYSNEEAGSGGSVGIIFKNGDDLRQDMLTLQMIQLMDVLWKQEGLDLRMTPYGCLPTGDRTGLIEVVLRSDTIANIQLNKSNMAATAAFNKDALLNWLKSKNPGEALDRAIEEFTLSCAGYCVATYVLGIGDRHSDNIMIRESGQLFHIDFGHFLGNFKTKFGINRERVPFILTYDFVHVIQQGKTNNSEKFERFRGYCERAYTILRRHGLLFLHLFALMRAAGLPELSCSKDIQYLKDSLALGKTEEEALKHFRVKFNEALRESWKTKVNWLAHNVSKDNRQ
Nature of the assay: PI3Kdelta Scintillation Proximity Assay: [γ-33P]ATP (10mCi/mL) was purchased from Perkin-Elmer (Waltham, Mass.). Lipid kinase substrate, D-myo-Phosphatidylinositol 4,5-bisphosphate (PtdIns(4,5)P2)D (+)-sn-1,2-di-O-octanoylglyceryl, 3-O-phospho linked (PIP2), CAS 204858-53-7, was purchased from Echelon Biosciences (Salt Lake City, Utah). PI3Kδ (p110δ/p85α) was purchased from Millipore (Bedford, Mass.). ATP, MgCl2, DTT, EDTA, MOPS and CHAPS were purchased from Sigma-Aldrich (St. Louis, Mo.). Wheat Germ Agglutinin (WGA) YSi SPA Scintillation Beads was purchased from GE healthcare life sciences (Piscataway, N.J.).The kinase reaction was conducted in polystyrene 384-well matrix white plate from Thermo Fisher Scientific in a final volume of 25 μL. Inhibitors were first diluted serially in DMSO and added to the plate wells before the addition of other reaction components. The final concentration of DMSO in the assay was 0.5%. The PI3K assays were carried out at room temperature in 20 mM MOPS, pH 6.7, 10 mM MgCl2, 5 mM DTT and CHAPS 0.03%.Reactions were initiated by the addition of ATP, the final reaction mixture consisted of 20 μM PIP2, 20 μM ATP, 0.2 μCi [γ-33P] ATP, 4 nM PI3Kδ. Reactions were incubated for 210 min and terminated by the addition of 40 μL SPA beads suspended in quench buffer: 150 mM potassium phosphate pH 8.0, 20% glycerol. 25 mM EDTA, 400 μM ATP. […]. (In a scintillation proximity assay essentially only radioactivity close to the scintillant gives light.)

Where only a bound is given, the exact number is not on record here.

For `Cc1nn(C(C)c2cc(Cl)c(F)c3c2O[C@H](C)CN(C2CC(C(=O)O)C2)C3)c2ncnc(N)c12` (stereo partly specified), the IC50 was < 100 nM.
